Common to all, as to type: cell-based
The test system of assay [1] is melanin-producing enzymes (tyrosinase, TRP2) in normal human melanocytes. As to the kind of experiment: Protein expression of melanin-producing enzymes (tyrosinase, TRP2) in normal human melanocytes without inducer. The conditions noted are these: no inducer, 0.001-100 nM, 4 days. As for the experimental part:
(§1) Normal human melanocytes are placed on a 6-well plate, and the next day, the medium is changed to a melanocyte-free melanocyte medium. At this time, they are treated with each composition including the compound represented by Chemical Formula 1-1 (Cayman chemical) in an amount of 0 nM, 0.001 nM, 0.01 nM, 0.1 nM, 1 nM, 10 nM, and 100 nM, respectively (based on the total amount of the composition). After culturing for 4 days, the cells are broken using a lysis buffer in each well and then the proteins are separated. Subsequently, the separated proteins are measured with respect to relative protein expression levels by using a specific antibody for tyrosinase which is a melanin-producing enzyme from, TRP2 (tyrosinase related protein 2).

Assay [2] relates to melanin-producing enzyme (tyrosinase, TRP2) in normal human melanocytes. As to the kind of experiment: Increase in protein expression of melanin-producing enzyme (tyrosinase, TRP2) by pigmentation inducer (α-MSH). The note with it: 500 nM α-MSH, 0.001-100 nM, 4 days, FIGS. 4 to 6. As for the experimental part:
as §1, with “PMA-free” for “melanocyte-free”, “composition) along with 500 nM pigmentation inducer (α-MSH).” for “composition).”, “TRP2 (tyrosinase related protein 2),” for “tyrosinase”, “enzyme.” for “enzyme from, TRP2 (tyrosinase related protein 2).”

The test system is the same in assay [3]. Put plainly: Increase in protein expression of melanin-producing enzyme (tyrosinase, TRP2) by pigmentation inducer (IBMX). The conditions noted are these: 100 μM IBMX, 0.001-100 nM, 4 days, FIGS. 7 to 9. On the procedure:
as §1, with “PMA-free” for “melanocyte-free”, “composition) along with 100 μM pigmentation inducer (IBMX).” for “composition).”, “TRP2 (tyrosinase related protein 2),” for “tyrosinase”, “enzyme.” for “enzyme from, TRP2 (tyrosinase related protein 2).”

Assay [4] relates to melanin-producing enzymes (TRP1, TRP2) in normal human melanocytes. Put plainly: Increase in protein expression of melanin-producing enzymes (TRP1, TRP2) by C. acnes. The conditions noted are these: 10^7 CFU/ml live C. acnes, 1 nM to 100 nM, 2 days, FIGS. 11 and 12. As for the experimental part: Cutibacterium acnes (C. acnes, ATCC 6919) are inoculated in a BHI medium and cultured at 37° C. under anaerobic conditions for 72 hours to 96 hours, and then, the medium is collected. The collected medium is centrifuged (4° C., 10 minutes at 5,000×g), precipitating the bacteria. The precipitated bacteria are twice washed with phosphate-buffered saline (PBS) and treated up to a final concentration of 10^10 CFU/ml, preparing a live C. acnes stock, and the live C. acnes stock is cryopreserved at −80° C. Normal human melanocytes are placed on 6-well plates, and the next day, the medium is changed to a PMA-free melanocyte medium. Herein, 10^4, 10^5, 10^6, and 10^7 CFU/ml of live C. acnes are treated. After culturing for 2 days, the cells broken by using a lysis buffer in each well to separate proteins. The separated proteins are measured with respect to relative protein expression levels by using a specific antibody for TRP1 (tyrosinase related protein 1) and TRP2 (tyrosinase related protein 2), which are melanin-producing enzymes.
Normal human melanocytes are placed on 6-well plates, and the next day, the medium is changed to a PMA-free melanocyte medium. […] The separated proteins are measured with respect to relative protein expression levels by using a specific antibody for TRP1 (tyrosinase related protein 1) and TRP2 (tyrosinase related protein 2), which are melanin-producing enzymes.

Consider `CC/C=C\C[C@H](O)/C=C/C=C\C/C=C\C=C\[C@@H](O)C/C=C\CCC(=O)O` [Chemical Formula 1-1], for which the “increase in the protein expression of the melanin-producing enzyme (tyrosinase, TRP2)” value in assay [1] (antibody detection vs GAPDH, FIGS. 1 to 3) was “effectively inhibited”. Also, in assay [1] (concentration dependence), the “increase in protein expression of the tyrosinase” value is on record as “effectively inhibited depending on a concentration”. Further, the “increase in protein expression of the melanin-producing enzyme (tyrosinase, TRP2) by α-MSH” value in assay [2] is given as “effectively inhibited”. In assay [3], the “increase in protein expression of the melanin-producing enzyme (tyrosinase, TRP2) by IBMX” value is listed as “effectively inhibited”. Further, the “increase in protein expression of the melanin-producing enzyme (TRP1, TRP2) by C. acnes” value in assay [4] is recorded as “effectively inhibited”.
